The results in this text go back to patent publication US20170119806A1, “[…] LACTONE DERIVATIVES AND METHODS OF MAKING AND USING THEREOF” (OHIO STATE INNOVATION FOUNDATION, priority 2014, published 2017).

For one data set, the system named is TLR1 or TLR6. Put plainly: TLR activation assessment (NF-κB luciferase reporter in HEK293T). In kind it is cell-based, human. The following applies: various concentrations of PL-C, 24 h. (In general: Reporter assays use an easily measured gene product as a stand-in for the process of interest.)
Data set [1] has as its system primary NK cells cocultured with ARH-77 target cells. Put plainly: NK cell cytotoxicity assay (51Cr release). The class given is cell-based, human. The conditions noted are these: 10 μM PL-C 8 h, then 4 h coculture, with IL-12 or IL-15; listed as PL-C. The procedure: (A) Human […] were treated with DMSO vehicle control or 10 μM PL-C for 18 hours in the presence of IL-12 (10 ng/mL) or IL-15 (100 ng/mL), as described in FIG. 37C. The cells were harvested for intracellular flow cytometry to determine the frequency of IFN-γ^+ cells in CD56^−CD3^+[…] or CD56^−CD3^+CD8^+T. Representative data from 1 out of 5 donors are shown. (B) Purified primary NK cells were treated with IL-12 (10 ng/mL) or IL-15 (100 ng/mL) with or without 10 μM PL-C for 8 hours and were sequentially co-cultured with […] labeled ARH-77 cells at various effector/target cell ratios for additional 4 hours. ^51Cr release was measured by a TopCount counter. Data shown are the means of 3 donors. […] Error bars represent S.D. (C) Purified primary NK cells were treated with 10 μM PL-C in the presence of IL-12 (10 ng/mL) (top) or IL-15 (100 ng/mL) (bottom) for 12 hours, and cell pellets were harvested for detecting granzyme A (GZMA), granzyme B (GZMB), perforin (PRF1) and Fas (Fasl) mRNA expression level by real-time RT-PCR. Data shown are the means of 6 donors. p>0.05, vehicle control versus PL-C in all panels. Error bars represent S.D.
Cytotoxicity assay. Cytotoxicity assay was performed as described previously (Yu J et al. Immunity 2006, 24, 575-590; Yu J et al. Blood 2010, 115, 274-281). […] The release of ^51Cr was counted on a TopCount counter (Canberra Packard, Meriden, Conn.). […]

A further data set can be described thus: Toxicity of PL-C in mice. The class given is in vivo. The conditions noted are these: up to 500 mg PL-C/kg body weight. The source says:
The findings discussed herein provide an avenue to prevent or treat cancer using natural products and their derivatives through enhancing NK cell immuno-surveillance. […] Developing less toxic drugs is important for preventing or treating some cancers, especially thr those which are dominant in children or in elderly populations, such as AML AML primarily affects older adults: the median age at diagnosis is >65 years (Estey E and Milner H. Lancet 2006, 368, 18941907; Yanada M and Naoe T. Int. J. Hematol. 2012, 96, 186-193). The 5 year survival rate of AML in older adults remains under 10% (Stein E M and Tallman M S. Int J. Hematol 2012, 96, 164-170). Elderly AML patients are less able than younger patients to tolerate effective therapies such as intensive chemotherapy and allogeneic stem cell transplantation.

The test system of a further data set is NF-κB p65. The data set can be described thus: Immunoblotting of p65 and p-p65 in NK cells. The following applies: 5 and 10 μM PL-C, 18 h. In kind it is cell-based, human. The procedure: (A) Purified primary human NK cells were treated with 5 and 10 μM PL-C for 18 h. The cells were harvested and lysed for immunoblotting using p65 and p-p65 Abs. β-Actin immunoblotting was included as the internal control. Data shown are for treatment with PL-C alone (top panel) or in combination with IL-12 (10 ng/mL) (middle panel) or IL-15 (100 ng/mL) (bottom panel) and are the representative plots of four donors with similar results. Numbers under each lane represent quantification of p-p65 or p65 via densitometry, after normalizing to β-actin. (B) NKL cells were treated, and data are presented as described in (A). Data from one of three independent experiments with similar results are shown. (C) Purified primary human NK (left panel) or NKL cells (right panel) were cotreated with 10 μM PL-C and IL-12 (10 ng/mL) in the presence or absence of the NF-κB inhibitor TPCK (10 μM) for 18 h. Supernatants were assayed for IFN-γ secretion by ELISA (top panel), and cells were harvested and lysed for immunoblotting of p-p65 (bottom panel). Representative data from one of three donors with the similar data (left panel) and the summary of three independent experiments with similar results (right panel) are shown. **p<0.01. Error bars represent SD.
Immunoblotting. Immunoblotting was performed as described previously (Yu J et al. Immunity 2006, 24, 575-590; Yu J et al. Blood 2010, 115, 274-281). […]
(In general: A western blot detects proteins with antibodies after separation by electrophoresis.)

Entries after “also recorded” stand apart in the source; their conditions may differ.

Take `COc1cc2c(OC3OCC(O)C(O)C3O)c3c(c(-c4ccc5c(c4)OCO5)c2cc1OC)C(=O)OC3` (stereo not shown) [Compound 4, Phyllanthusmin C]: the “NF-κB luciferase reporter activity in TLR1- or TLR6-transfected 293T cells” value in the data set with TLR1 or TLR6 is recorded as “induce luciferase reporter activity in a dose-dependent fashion”. The NK cell cytotoxicity result in data set [1] was “no statistically significant difference; also recorded: little or no; also recorded: did not activate NK cell cytotoxicity; also recorded: limited effect on NK cytotoxicity”. Further, the toxicity in mice entry in “Toxicity of PL-C in mice” is given as “lack of substantial toxicities”. The “NF-κB p65 phosphorylation in primary NK and NKL cells” value with NF-κB p65 was “increased”.
